Laboratory results: ChEMBL document CHEMBL3112424, “Discovery and optimization of pyrimidone indoline amide PI3Kβ inhibitors for the treatment of phosphatase and tensin homologue (PTEN)-deficient cancers” (J Med Chem, 2014)
≈ marks a conversion by molar mass, not a printed value.

Columns and labels:
[1] = Plasma concentration in Balb/c mouse at 100 mg/kg, po measured for 5 hrs; assay type: ADME, organism-based; design: dose 100 mg/kg, route oral
[2] = Plasma concentration in Balb/c mouse at 100 mg/kg, po measured for 12 hrs; assay type: ADME, organism-based; design: dose 100 mg/kg, route oral
[3] = Half life in Beagle dog at 10 mg/kg, po; assay type: ADME, organism-based, Canis lupus familiaris; design: dose 10 mg/kg, route oral; details: in vivo
[4] = Oral bioavailability in Beagle dog at 10 mg/kg; assay type: ADME, organism-based, Canis lupus familiaris; details: in vivo
[5] = AUC (infinity) in Beagle dog at 10 mg/kg, po; assay type: ADME, organism-based, Canis lupus familiaris; design: time infinity, dose 10 mg/kg, route oral; details: plasma
[6] = Cmax in Beagle dog at 10 mg/kg, po; assay type: ADME, organism-based, Canis lupus familiaris; design: dose 10 mg/kg, route oral; details: in vivo
[7] = Half life in Beagle dog at 3 mg/kg, iv; assay type: ADME, organism-based, Canis lupus familiaris; design: dose 3 mg/kg, route intravenous; details: in vivo
[8] = Volume of distribution at steady state in Beagle dog at 3 mg/kg, iv; assay type: ADME, organism-based, Canis lupus familiaris; design: dose 3 mg/kg, route intravenous; details: in vivo, read-out: Vdss
[9] = Clearance in Beagle dog at 3 mg/kg, iv; assay type: ADME, organism-based, Canis lupus familiaris; design: dose 3 mg/kg, route intravenous; details: in vivo
[10] = Tmax in Beagle dog at 3 mg/kg, iv; assay type: ADME, organism-based, Canis lupus familiaris; design: dose 3 mg/kg, route intravenous; details: in vivo
[11] = Cmax in Beagle dog at 3 mg/kg, iv; assay type: ADME, organism-based, Canis lupus familiaris; design: dose 3 mg/kg, route intravenous; details: in vivo
[12] = Oral bioavailability in nude rat at 10 mg/kg; assay type: ADME, organism-based; details: in vivo
[13] = Tmax in nude rat at 10 mg/kg, po; assay type: ADME, organism-based; design: dose 10 mg/kg, route oral; details: in vivo
[14] = AUC (infinity) in nude rat at 10 mg/kg, po; assay type: ADME, organism-based; design: time infinity, dose 10 mg/kg, route oral; details: plasma
[15] = Volume of distribution at steady state in nude rat at 3 mg/kg, iv; assay type: ADME, organism-based; design: dose 3 mg/kg, route intravenous; details: in vivo, read-out: Vdss
[16] = Clearance in nude rat at 3 mg/kg, iv; assay type: ADME, organism-based; design: dose 3 mg/kg, route intravenous; details: in vivo
[17] = AUC (infinity) in nude rat at 3 mg/kg, iv; assay type: ADME, organism-based; design: time infinity, dose 3 mg/kg, route intravenous; details: plasma
Mus musculus [18] = assay: Toxicity in SCID mouse xenografted with BRAF-V600E/PTEN-deficient human UACC62 cells assessed as body weight loss at 150 mg/kg, po bid; assay type: organism-based, UACC-62; design: dose 150 mg/kg, route oral; details: in vivo
UACC-62 = assay: Antitumor activity against BRAF-V600E/PTEN-deficient human UACC62 cells xenografted in SCID mouse assessed as tumor growth inhibition at 150 mg/kg, po bid measured on day 15; assay type: functional
[19] = target: T1, Phosphatidylinositol 4,5-bisphosphate 3-kinase catalytic subunit beta isoform (Homo sapiens, UniProt P42338); assay: Inhibition of PI3Kbeta-mediated Akt phosphorylation at S473 in BRAF-V600E/PTEN-deficient human UACC62 cells; assay type: cell-based, UACC-62
Target sequence in this assay (P42338 whole entry, canonical isoform): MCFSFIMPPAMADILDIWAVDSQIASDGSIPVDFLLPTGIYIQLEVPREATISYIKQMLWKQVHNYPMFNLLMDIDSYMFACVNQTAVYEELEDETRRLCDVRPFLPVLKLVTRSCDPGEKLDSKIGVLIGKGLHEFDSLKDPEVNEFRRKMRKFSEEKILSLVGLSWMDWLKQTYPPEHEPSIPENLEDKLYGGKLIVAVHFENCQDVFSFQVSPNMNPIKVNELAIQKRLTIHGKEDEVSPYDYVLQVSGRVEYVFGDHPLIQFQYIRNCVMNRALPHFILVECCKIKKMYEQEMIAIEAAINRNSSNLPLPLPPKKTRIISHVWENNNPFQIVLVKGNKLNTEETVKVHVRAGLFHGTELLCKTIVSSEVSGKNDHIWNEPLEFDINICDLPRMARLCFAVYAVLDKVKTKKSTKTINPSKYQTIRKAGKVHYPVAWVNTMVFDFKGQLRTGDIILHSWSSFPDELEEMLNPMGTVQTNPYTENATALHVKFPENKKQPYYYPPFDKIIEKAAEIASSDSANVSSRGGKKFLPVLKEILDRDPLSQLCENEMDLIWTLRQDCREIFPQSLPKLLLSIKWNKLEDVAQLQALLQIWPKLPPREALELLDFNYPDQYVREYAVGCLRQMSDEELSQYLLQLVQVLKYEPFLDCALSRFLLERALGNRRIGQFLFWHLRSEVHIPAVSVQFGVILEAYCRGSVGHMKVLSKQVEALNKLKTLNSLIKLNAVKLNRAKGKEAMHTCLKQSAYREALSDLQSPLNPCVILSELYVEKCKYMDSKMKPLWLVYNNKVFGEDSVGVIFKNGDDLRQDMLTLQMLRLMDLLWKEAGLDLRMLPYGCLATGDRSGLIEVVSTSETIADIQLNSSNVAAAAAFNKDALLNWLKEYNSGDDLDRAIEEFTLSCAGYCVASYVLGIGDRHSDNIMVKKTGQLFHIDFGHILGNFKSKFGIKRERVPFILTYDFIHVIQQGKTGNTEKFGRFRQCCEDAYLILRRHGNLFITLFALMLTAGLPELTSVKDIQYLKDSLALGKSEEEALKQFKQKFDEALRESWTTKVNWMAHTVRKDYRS

Plasma = assay: Fraction unbound in SCID mouse plasma xenografted with BRAF-V600E/PTEN-deficient human UACC62 cells at 100 mg/kg, po; assay type: ADME, organism-based, UACC-62; design: dose 100 mg/kg, route oral; details: in vivo
[20] = Half life in nude rat at 10 mg/kg, po; assay type: ADME, organism-based; design: dose 10 mg/kg, route oral; details: in vivo
Mus musculus [21] = assay: Toxicity in SCID mouse xenografted with PTEN-deficient human PC3 cells at 150 mg/kg, po bid; assay type: organism-based, PC-3; design: dose 150 mg/kg, route oral; details: in vivo
PC-3 = assay: Antitumor activity against PTEN-deficient human PC3 cells xenografted in SCID mouse assessed as tumor growth inhibition at 150 mg/kg, po bid measured on day 31; assay type: functional
Mus musculus [22] = assay: In vivo inhibition of PI3Kbeta in tumor of po dosed SCID mouse xenografted with PTEN-deficient human PC3 cells assessed as inhibition of Akt phosphorylation at S473; assay type: functional, organism-based; details: PC-3
[23] = Plasma concentration in SCID mouse xenografted with PTEN-deficient human PC3 cells at 100 mg/kg, po after 24 hrs; assay type: ADME, organism-based, PC-3; design: dose 100 mg/kg, route oral
[24] = Plasma concentration in SCID mouse xenografted with PTEN-deficient human PC3 cells at 100 mg/kg, po after 16 hrs; assay type: ADME, organism-based, PC-3; design: dose 100 mg/kg, route oral
[25] = Plasma concentration in SCID mouse xenografted with PTEN-deficient human PC3 cells at 100 mg/kg, po after 4 hrs; assay type: ADME, organism-based, PC-3; design: dose 100 mg/kg, route oral
[26] = Plasma concentration in SCID mouse xenografted with PTEN-deficient human PC3 cells at 100 mg/kg, po after 1 hr; assay type: ADME, organism-based, PC-3; design: dose 100 mg/kg, route oral
Mus musculus [27] = assay: In vivo inhibition of PI3Kbeta in tumor of SCID mouse xenografted with PTEN-deficient human PC3 cells assessed as inhibition of Akt phosphorylation at S473 at 100 mg/kg, po up to 7 hrs; assay type: functional; details: PC-3, 7 h
[28] = Apparent terminal half life in Balb/c mouse plasma at 100 mg/kg, po by LC-MS/MS analysis; assay type: ADME, organism-based; design: dose 100 mg/kg, route oral; details: read-out: betat1/2(app) (converted)
[29] = AUC (infinity) in Balb/c mouse plasma at 100 mg/kg, po by LC-MS/MS analysis; assay type: ADME, organism-based; design: time infinity, dose 100 mg/kg, route oral
[30] = AUC (infinity) in Balb/c mouse plasma at 10 mg/kg, po by LC-MS/MS analysis; assay type: ADME, organism-based; design: time infinity, dose 10 mg/kg, route oral
[31] = Oral bioavailability in Balb/c mouse plasma at 10 mg/kg by LC-MS/MS analysis; assay type: ADME, organism-based
[32] = Apparent terminal half life in Balb/c mouse plasma at 10 mg/kg, po by LC-MS/MS analysis; assay type: ADME, organism-based; design: dose 10 mg/kg, route oral; details: read-out: betat1/2(app) (converted)
[33] = Tmax in Balb/c mouse plasma at 10 mg/kg, po by LC-MS/MS analysis; assay type: ADME, organism-based; design: dose 10 mg/kg, route oral
[34] = Apparent terminal half life in Balb/c mouse plasma at 3 mg/kg, iv by LC-MS/MS analysis; assay type: ADME, organism-based; design: dose 3 mg/kg, route intravenous; details: read-out: betat1/2(app) (converted)
[35] = Volume of distribution at steady state in Balb/c mouse plasma at 3 mg/kg, iv by LC-MS/MS analysis; assay type: ADME, organism-based; design: dose 3 mg/kg, route intravenous; details: read-out: Vdss
[36] = Clearance in Balb/c mouse plasma at 3 mg/kg, iv by LC-MS/MS analysis; assay type: ADME, organism-based; design: dose 3 mg/kg, route intravenous
[37] = AUC (infinity) in Balb/c mouse plasma at 3 mg/kg, iv by LC-MS/MS analysis; assay type: ADME, organism-based; design: time infinity, dose 3 mg/kg, route intravenous
[38] = Cmax in Balb/c mouse plasma at 3 mg/kg, iv by LC-MS/MS analysis; assay type: ADME, organism-based; design: dose 3 mg/kg, route intravenous
[39] = target: Phosphatidylinositol 3-kinase catalytic subunit type 3 (Homo sapiens, UniProt Q8NEB9); assay: Inhibition of VPS34 (unknown origin)
Sequence of Phosphatidylinositol 3-kinase catalytic subunit type 3 (Q8NEB9 whole entry, the tested form may be a part): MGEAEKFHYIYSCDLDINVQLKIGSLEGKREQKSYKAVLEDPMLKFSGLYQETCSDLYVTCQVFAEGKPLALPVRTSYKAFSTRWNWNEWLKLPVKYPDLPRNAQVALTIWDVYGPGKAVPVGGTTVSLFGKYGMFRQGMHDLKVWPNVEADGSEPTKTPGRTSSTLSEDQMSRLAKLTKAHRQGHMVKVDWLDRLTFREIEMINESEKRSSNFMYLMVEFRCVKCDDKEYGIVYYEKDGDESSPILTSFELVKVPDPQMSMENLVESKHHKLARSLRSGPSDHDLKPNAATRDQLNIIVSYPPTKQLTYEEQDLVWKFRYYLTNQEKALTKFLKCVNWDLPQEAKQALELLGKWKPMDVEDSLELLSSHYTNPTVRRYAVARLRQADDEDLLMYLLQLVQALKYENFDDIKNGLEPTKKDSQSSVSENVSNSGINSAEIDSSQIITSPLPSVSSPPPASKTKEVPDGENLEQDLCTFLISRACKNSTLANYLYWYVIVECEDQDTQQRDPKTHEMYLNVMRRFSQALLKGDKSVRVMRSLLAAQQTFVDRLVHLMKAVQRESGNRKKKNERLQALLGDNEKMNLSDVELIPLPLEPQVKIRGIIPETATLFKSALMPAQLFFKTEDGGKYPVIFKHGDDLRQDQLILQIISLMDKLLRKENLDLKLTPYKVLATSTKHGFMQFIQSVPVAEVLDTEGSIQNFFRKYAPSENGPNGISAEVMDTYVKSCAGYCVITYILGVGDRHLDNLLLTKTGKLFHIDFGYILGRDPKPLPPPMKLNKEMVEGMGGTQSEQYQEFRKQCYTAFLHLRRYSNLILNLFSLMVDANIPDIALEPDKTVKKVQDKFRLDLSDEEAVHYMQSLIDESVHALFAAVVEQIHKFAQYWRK

[40] = target: Phosphatidylinositol 4-phosphate 3-kinase C2 domain-containing subunit beta (Homo sapiens, UniProt O00750); assay: Inhibition of PI3KC2beta (unknown origin)
Sequence of Phosphatidylinositol 4-phosphate 3-kinase C2 domain-containing subunit beta (O00750 whole entry, the tested form may be a part): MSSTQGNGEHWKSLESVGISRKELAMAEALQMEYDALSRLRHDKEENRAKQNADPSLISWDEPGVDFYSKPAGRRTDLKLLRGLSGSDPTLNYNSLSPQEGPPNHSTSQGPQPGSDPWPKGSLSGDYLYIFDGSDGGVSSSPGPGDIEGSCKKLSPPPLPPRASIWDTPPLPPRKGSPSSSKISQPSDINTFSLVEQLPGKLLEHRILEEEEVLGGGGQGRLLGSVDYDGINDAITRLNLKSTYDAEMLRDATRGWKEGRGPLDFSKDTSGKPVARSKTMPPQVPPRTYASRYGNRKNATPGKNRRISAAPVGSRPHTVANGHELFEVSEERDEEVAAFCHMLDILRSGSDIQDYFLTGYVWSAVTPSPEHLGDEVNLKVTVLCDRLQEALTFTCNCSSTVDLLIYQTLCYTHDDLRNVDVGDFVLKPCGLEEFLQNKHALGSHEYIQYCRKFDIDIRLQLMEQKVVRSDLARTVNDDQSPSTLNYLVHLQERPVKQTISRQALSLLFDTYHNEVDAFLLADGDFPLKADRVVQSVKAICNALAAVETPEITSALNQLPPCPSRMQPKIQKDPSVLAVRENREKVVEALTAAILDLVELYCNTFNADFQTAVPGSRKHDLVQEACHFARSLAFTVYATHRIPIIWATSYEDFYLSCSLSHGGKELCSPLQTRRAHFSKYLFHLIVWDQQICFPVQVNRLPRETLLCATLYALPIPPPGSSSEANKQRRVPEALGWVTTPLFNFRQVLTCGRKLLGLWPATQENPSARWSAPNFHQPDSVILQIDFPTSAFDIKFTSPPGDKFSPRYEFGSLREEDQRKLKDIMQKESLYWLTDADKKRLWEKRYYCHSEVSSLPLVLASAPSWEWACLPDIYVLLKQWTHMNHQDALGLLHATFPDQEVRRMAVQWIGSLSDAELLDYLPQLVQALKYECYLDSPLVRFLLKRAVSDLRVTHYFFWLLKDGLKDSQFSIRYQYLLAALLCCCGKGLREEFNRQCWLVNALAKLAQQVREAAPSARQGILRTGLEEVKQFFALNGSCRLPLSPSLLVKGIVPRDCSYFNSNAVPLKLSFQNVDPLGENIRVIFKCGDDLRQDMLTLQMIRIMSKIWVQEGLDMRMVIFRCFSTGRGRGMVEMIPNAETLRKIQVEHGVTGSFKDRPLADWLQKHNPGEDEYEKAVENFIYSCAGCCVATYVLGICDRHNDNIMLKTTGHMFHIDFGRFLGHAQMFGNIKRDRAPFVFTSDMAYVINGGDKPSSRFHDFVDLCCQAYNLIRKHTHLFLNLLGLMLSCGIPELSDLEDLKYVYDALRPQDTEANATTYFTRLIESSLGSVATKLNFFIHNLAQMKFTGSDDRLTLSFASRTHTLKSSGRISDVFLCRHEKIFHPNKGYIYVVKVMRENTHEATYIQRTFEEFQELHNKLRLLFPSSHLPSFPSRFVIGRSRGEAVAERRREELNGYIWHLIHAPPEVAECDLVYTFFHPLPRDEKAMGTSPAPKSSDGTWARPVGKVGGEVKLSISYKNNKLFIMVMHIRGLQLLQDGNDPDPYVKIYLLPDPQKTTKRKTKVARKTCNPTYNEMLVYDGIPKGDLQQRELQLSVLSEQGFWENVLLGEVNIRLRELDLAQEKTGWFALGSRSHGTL

[41] = target: Serine/threonine-protein kinase mTOR (Homo sapiens, UniProt P42345); assay: Inhibition of mTOR (unknown origin)
Cytochrome P450 3A4 = Cytochrome P450 3A4 (Homo sapiens, UniProt P08684); assay: Inhibition of recombinant human CYP3A4
[42] = Metabolic stability in human liver microsomes at 5 uM after 20 mins; details: liver microsomes
[43] = Metabolic stability in mouse liver microsomes at 5 uM after 20 mins; details: liver microsomes
[44] = Solubility of the compound in phosphate buffer at pH 7.4 by HPLC analysis; details: buffer
[45] = target: Phosphatidylinositol 4,5-bisphosphate 3-kinase catalytic subunit gamma isoform (Homo sapiens, UniProt P48736); assay: Inhibition of C-terminal ploy-His-tagged human PI3Kgamma expressed in baculovirus-infected sf9 cells using PI(4,5)P2 as substrate after 15 mins by HTRF assay
Sequence of Phosphatidylinositol 4,5-bisphosphate 3-kinase catalytic subunit gamma isoform (P48736 whole entry, canonical isoform): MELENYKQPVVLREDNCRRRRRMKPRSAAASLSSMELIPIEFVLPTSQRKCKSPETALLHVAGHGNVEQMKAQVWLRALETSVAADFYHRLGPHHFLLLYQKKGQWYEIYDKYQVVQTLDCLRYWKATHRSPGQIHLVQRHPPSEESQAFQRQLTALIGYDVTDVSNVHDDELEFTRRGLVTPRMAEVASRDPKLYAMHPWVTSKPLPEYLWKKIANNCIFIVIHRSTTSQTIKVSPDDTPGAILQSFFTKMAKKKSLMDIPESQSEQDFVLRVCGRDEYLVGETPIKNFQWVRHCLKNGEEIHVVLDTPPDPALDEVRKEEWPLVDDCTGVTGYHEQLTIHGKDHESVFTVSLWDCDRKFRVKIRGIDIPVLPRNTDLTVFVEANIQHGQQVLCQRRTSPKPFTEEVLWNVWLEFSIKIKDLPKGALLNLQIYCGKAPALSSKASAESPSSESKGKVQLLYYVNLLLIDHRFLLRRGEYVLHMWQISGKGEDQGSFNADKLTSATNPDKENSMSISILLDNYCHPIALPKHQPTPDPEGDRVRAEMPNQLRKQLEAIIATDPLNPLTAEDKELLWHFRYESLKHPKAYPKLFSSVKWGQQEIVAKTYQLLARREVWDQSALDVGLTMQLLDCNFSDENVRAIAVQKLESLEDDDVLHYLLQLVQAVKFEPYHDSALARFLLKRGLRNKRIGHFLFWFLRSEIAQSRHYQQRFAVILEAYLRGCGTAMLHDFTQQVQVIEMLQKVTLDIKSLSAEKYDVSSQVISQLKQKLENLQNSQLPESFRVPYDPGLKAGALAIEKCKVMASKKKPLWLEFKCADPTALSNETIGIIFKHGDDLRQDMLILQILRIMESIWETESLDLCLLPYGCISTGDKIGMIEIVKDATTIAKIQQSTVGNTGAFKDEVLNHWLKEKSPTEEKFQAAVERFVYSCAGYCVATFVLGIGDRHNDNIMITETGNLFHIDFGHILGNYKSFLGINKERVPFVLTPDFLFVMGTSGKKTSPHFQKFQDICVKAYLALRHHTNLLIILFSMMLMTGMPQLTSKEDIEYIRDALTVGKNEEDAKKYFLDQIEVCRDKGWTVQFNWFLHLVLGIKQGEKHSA

[46] = target: T1, Phosphatidylinositol 4,5-bisphosphate 3-kinase catalytic subunit beta isoform; assay: Inhibition of N-terminal ploy-His-tagged human PI3Kbeta expressed in baculovirus-infected sf21 cells using PI(4,5)P2 as substrate after 15 mins by HTRF assay
Target sequence in this assay (P42338 whole entry, canonical isoform): as the sequence (P42338 whole entry, canonical isoform) above

[47] = target: T1, Phosphatidylinositol 4,5-bisphosphate 3-kinase catalytic subunit beta isoform; details: PC-3
Target sequence in this assay (P42338 whole entry, looked up, canonical isoform): as the sequence (P42338 whole entry, canonical isoform) above
Description: Inhibition of PI3Kbeta-mediated Akt phosphorylation at S473 in PTEN-deficient human PC3 cells after 0.5 to 2 hrs by Immunoblotting assay

C[C@H]1Cc2ccccc2N1C(=O)Cc1nc(N2CCOCC2)cc(=O)[nH]1 [SAR-260301] showed a concentration at 5 h [1] greater than 1000 nM, a concentration at 12 h [2] greater than 100 nM and a half-life [3] of 4.5 h. The bioavailability [4] was 67%, the AUC(0-inf) [5] was 14000 ng·h/mL and the Cmax [6] was 4770 ng/mL. For the same molecule, the half-life [7] was greater than 5 h, the Vd [8] was greater than 3 L/kg and the clearance [9] was 6.67 mL/min/kg. It also gave a Tmax [10] of 0.5 h, a Cmax [11] of 4920 ng/mL and a bioavailability [12] of 70%. It also gave a Tmax [13] of 0.25 h, an AUC(0-inf) [14] of 2410 ng·h/mL and a Vd [15] of 8.1 L/kg. For the same molecule, the clearance [16] was 56.7 mL/min/kg, the AUC(0-inf) [17] was 864 ng·h/mL and the Activity (Mus musculus [18]) was “Non-toxic”. For the same molecule, the T/C (UACC-62) was 39%, the IC50 [19] was 0.06 µM and the “Cp(f)” value (Plasma) was 1820 nM. For the same molecule, the half-life [20] was 6.9 h, the Activity (Mus musculus [21]) was “Non-toxic” and the T/C (PC-3) was 61%. It also gave an EC50 (Mus musculus [22]) of 0.68 µM, a concentration at 24 h [23] of 76 nM and a concentration at 16 h [24] of 26 nM. The concentration at 4 h [25] was 14200 nM, the concentration at 1 h [26] was 24900 nM and the inhibition in vivo at 100 mg/kg (Mus musculus [27]) was no less than 50%. The half-life [28] was 2.5 h, the AUC(0-inf) [29] was 11000 ng·h/mL and the AUC(0-inf) [30] was 610 ng·h/mL. For the same molecule, the bioavailability [31] was 30%, the half-life [32] was 1.4 h and the Tmax [33] was 0.25 h. It also gave a half-life [34] of 0.87 h, a Vd [35] of 1 L/kg and a clearance [36] of 83.3 mL/min/kg. For the same molecule, the AUC(0-inf) [37] was 600 ng·h/mL, the Cmax [38] was 1870 ng/mL and the IC50 [39] was 0.183 µM. It also gave an IC50 [40] greater than 1 µM, an IC50 [41] greater than 10 µM and an IC50 (Cytochrome P450 3A4) of 40 µM. It also gave a remaining at 20 min, 5 µM [42] of 12%, a remaining at 20 min, 5 µM [43] of 19% and a solubility [44] of 928 µM (≈ 329 µg/mL). For the same molecule, the IC50 [45] was 10 µM, the IC50 [46] was 0.023 µM and the IC90 [47] was 0.002 µM.
